{"source": "patent US20230416248A1", "about": "“COMPOUNDS AND USES THEREOF” (Foghorn Therapeutics Inc., priority 2020, published 2023)", "key": {"[1]": {"tested_on": "PKC inhibitor (PKCi)-resistant MP41 uveal melanoma cells", "experiment": "7-day growth inhibition assay, PKC inhibitor-resistant cells (Example 14)", "format": "cell-based", "description": "(§1) Procedure: MP41 uveal melanoma cells were made resistant to the PKC inhibitor (LXS196; MedChemExpress), by long-term culture in growth media (see Table 6) containing increasing concentrations of the compound, up to 1 micromolar. After 3 months, sensitivity of the parental MP41 cells and the PKC inhibitor (PKCi)-resistant cells to the PKC inhibitor (LXS196) or the BRG1/BRM ATPase inhibitor (Compound B) was tested in a 7-day growth inhibition assay as described above in Example 9."}, "[2]": {"tested_on": "Uveal melanoma cell lines (92-1, MP41, MP38, MP46) and Non-small cell lung cancer cells (NCIH1299)", "experiment": "3-day cell growth, Cell-titer glow (Example 12)", "format": "cell-based", "conditions": "FIG. 5, 3 days, 0 to 10 micromolar", "description": "Procedure: Uveal melanoma cell lines (92-1, MP41, MP38, MP46) and Non-small cell lung cancer cells (NCIH1299) were plated into 96 well plates with growth media (see Table 6). BRG1/BRM ATPase inhibitor, compound 67, was dissolved in DMSO and added to the cells in a concentration gradient from 0 to 10 micromolar at the time of plating. Cells were incubated at 37° C. for 3 days. After three days of treatment, cell growth was measured with Cell-titer glow (Promega), and luminescence was read on an Envision plate reader (Perkin Elmer)."}, "[3]": {"tested_on": "Uveal melanoma cell lines, 92-1 or MP41", "experiment": "3-day growth inhibition compared with clinical PKC and MEK inhibitors, Compound B (Example 13)", "format": "cell-based", "conditions": "FIG. 6A and 6B", "description": "Procedure: Uveal melanoma cell lines, 92-1 or MP41, were plated in 96 well plates in the presence of growth media (see Table 6). BAF ATPase inhibitor (Compound B), PKC inhibitor (LXS196; MedChemExpress), and MEK Inhibitor (Selumetinib; Selleck Chemicals) were dissolved in DMSO and added to the cells in a concentration gradient from 0 to 10 micromolar at the time of plating. Cells were incubated at 37° C. for 3 days. After three days of treatment, cell growth was measured with Cell-titer glow (Promega), and luminescence was read on an Envision plate reader (Perkin Elmer)."}, "parental MP41 cells": {"tested_on": "parental MP41 cells", "experiment": "7-day growth inhibition assay, parental cells (Example 14)", "format": "cell-based", "conditions": "FIG. 7B, 7-day assay", "description": "as §1"}, "[4]": {"experiment": "Body weight and tolerability in mice engrafted with 92-1 tumors (Example 16)", "format": "in vivo", "conditions": "all treatments, once daily oral gavage, 3 weeks, FIG. 8C", "description": "Procedure: Nude mice (Envigo) were engrafted subcutaneously in the axillary region with 5×10^6 92-1 uveal melanoma cells in 50% Matrigel. Tumors were grown to a mean of ˜200 mm^3, at which point mice were grouped and dosing was initiated. Mice were dosed once daily by oral gavage with vehicle (20% 2-Hydroxypropyl-[…]) or increasing doses of Compound C. Tumor volumes and body weights were measured over the course of 3 weeks, and doses were adjusted by body weight to achieve the proper dose in terms of mg/kg. At this time, animals were sacrificed, and tumors were dissected and imaged."}, "BRM": {"target": "T1, BRM (Homo sapiens, UniProt P51531)", "T1 construct": "made in house; host or cells: High Five insect cells", "T1 sequence (P51531 whole entry)": "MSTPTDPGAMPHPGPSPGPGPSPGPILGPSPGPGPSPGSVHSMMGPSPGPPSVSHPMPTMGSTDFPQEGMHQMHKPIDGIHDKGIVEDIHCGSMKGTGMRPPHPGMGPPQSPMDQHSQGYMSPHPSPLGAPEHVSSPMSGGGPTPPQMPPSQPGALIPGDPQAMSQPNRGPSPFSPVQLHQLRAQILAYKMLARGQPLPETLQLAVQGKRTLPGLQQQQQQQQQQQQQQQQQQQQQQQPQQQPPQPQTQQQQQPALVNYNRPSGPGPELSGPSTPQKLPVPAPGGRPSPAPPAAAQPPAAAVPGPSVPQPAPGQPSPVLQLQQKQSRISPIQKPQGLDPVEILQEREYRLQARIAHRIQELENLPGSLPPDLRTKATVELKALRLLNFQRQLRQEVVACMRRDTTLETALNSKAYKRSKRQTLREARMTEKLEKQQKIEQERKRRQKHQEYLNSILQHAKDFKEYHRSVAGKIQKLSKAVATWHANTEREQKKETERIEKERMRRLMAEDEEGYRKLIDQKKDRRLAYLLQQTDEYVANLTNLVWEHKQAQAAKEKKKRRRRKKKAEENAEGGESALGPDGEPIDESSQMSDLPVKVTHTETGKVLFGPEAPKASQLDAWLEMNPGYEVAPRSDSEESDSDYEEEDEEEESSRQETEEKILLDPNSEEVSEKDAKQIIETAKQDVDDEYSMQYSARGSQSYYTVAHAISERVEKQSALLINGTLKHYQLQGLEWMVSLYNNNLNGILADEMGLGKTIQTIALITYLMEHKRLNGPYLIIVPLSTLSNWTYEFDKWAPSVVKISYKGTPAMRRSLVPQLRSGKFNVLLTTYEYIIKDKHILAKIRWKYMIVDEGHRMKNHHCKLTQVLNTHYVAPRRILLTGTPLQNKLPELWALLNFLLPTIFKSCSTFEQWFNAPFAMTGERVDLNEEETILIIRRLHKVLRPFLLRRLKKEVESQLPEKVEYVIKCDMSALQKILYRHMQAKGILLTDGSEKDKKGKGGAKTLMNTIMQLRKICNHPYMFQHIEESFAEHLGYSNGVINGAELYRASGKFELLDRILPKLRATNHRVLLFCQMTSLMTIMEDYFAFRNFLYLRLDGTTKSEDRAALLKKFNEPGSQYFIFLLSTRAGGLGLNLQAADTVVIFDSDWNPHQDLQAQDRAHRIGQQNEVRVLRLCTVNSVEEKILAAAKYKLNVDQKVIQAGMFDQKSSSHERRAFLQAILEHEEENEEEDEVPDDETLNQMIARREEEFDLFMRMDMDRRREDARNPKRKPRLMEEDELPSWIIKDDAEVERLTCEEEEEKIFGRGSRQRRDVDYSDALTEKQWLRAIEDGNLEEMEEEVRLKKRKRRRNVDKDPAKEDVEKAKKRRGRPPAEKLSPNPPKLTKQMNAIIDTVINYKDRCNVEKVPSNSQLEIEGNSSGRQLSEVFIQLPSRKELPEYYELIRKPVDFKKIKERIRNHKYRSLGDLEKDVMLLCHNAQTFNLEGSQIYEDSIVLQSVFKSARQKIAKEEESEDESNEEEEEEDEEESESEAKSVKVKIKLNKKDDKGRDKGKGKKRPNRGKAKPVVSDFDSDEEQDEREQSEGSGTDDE", "experiment": "ATPase catalytic activity of BRM, ADP-Glo in vitro biochemical assay", "conditions": "for IC50: 30 nM BRM, 400 μM ATP; for Ratio* (BRG1 IC50 (μM) divided by BRM IC50 (μM)): selectivity ratio BRG1 IC50 / BRM IC50", "how_it_was_run": "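ADP-Glo luminescence, after depletion of leftover ATP and conversion of ADP, reported the activity. The 1 h room-temperature reaction held 400 μM ATP, 20 nM salmon sperm DNA and 30 nM BRM in 20 mM Tris pH 8, 20 mM MgCl2, 50 mM NaCl, 0.1% Tween-20, 1 mM DTT.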"}, "BRG-1": {"target": "T2, BRG-1 (Homo sapiens, UniProt P51532)", "T2 construct": "made in house; host or cells: High Five insect cells", "T2 sequence (P51532 whole entry)": "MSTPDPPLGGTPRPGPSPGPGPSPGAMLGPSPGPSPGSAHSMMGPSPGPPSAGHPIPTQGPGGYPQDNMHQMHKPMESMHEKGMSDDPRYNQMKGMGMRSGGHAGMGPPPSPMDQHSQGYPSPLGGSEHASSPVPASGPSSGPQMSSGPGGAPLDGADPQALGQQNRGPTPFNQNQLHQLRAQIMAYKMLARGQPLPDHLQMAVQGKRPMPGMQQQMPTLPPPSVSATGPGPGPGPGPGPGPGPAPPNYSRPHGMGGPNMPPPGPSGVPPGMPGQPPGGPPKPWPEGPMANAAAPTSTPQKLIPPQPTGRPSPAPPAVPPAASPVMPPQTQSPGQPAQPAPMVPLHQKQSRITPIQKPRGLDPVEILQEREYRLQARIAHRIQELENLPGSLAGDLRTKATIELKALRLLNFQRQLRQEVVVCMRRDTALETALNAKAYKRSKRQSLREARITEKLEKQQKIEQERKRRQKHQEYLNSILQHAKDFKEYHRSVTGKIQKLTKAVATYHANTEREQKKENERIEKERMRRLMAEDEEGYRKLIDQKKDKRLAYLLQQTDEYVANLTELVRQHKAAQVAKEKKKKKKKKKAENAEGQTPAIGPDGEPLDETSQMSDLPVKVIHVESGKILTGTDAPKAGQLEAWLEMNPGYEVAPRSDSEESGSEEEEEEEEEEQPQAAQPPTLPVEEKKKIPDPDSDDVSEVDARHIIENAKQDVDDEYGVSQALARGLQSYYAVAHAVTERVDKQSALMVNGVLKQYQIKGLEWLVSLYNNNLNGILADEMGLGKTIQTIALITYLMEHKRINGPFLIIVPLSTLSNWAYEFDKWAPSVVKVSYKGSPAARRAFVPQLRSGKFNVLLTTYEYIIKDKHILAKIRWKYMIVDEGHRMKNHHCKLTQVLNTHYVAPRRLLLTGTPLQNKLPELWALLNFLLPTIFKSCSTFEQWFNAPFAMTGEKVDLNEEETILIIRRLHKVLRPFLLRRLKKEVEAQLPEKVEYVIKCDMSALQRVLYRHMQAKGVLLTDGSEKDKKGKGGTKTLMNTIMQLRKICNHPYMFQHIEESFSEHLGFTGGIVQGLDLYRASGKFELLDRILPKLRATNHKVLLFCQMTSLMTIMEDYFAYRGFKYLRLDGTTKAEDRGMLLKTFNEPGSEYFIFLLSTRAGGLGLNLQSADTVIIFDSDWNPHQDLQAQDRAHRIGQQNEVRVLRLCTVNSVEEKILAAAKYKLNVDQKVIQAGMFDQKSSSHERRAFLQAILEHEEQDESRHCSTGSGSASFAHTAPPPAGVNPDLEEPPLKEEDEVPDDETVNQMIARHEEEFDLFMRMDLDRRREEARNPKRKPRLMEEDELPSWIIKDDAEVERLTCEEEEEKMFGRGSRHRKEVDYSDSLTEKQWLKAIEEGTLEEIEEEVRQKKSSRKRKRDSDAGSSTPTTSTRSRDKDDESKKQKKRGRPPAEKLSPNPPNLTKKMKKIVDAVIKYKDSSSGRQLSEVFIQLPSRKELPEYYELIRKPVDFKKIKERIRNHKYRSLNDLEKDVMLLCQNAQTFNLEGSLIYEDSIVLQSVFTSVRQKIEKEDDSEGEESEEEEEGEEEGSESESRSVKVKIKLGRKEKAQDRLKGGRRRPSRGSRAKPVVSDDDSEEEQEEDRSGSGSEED", "experiment": "ATPase catalytic activity of BRG-1, ADP-Glo in vitro biochemical assay", "conditions": "30 nM BRG-1, 400 μM ATP, read-out: BRG1 IC50", "how_it_was_run": "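Once the ATPase reaction finished, leftover ATP was depleted over 40 minutes at room temperature. Generated ADP was next turned back into ATP during a 60-minute room-temperature step. Luciferase-derived light was then measured.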"}, "[5]": {"tested_on": "Uveal melanoma cell lines, 92-1 or MP41", "experiment": "3-day growth inhibition compared with clinical PKC and MEK inhibitors, Compound A (Example 8)", "format": "cell-based", "conditions": "FIG. 2A and 2B", "description": "Procedure: Uveal melanoma cell lines, 92-1 or MP41, were plated in 96 well plates in the presence of growth media (see Table 5). […] Cells were incubated at 37 degrees Celsius for 3 days. After three days of treatment, cell growth was measured with Cell-titer glow (Promega), and luminescence was read on an Envision plate reader (Perkin Elmer)."}, "[6]": {"conditions": "ATPase catalytic activity, ADP-Glo"}}, "note": "Where two headings read alike, the source gives them in different places."}
{"smiles": "CC1(N)CCN(c2cccnc2NC(=O)c2nc(-c3ncccc3C(F)(F)F)cnc2N)CC1", "note": "[LXS196, reference compound]", "values": [{"measurement": "tolerance of PKCi-resistant cells versus the parental MP41 cell line", "setting": "[1]; FIG. 7A", "result": "could tolerate growth at higher concentrations"}]}
{"smiles": "CSCC[C@H](NC(=O)c1ccn(S(C)(=O)=O)c1)C(=O)Nc1nc(-c2cccc(-c3ccncc3)c2)cs1", "note": "[Compound B, (S)-1-(methylsulfonyl)-N-(4-(methylthio)-1-oxo-1-((4-(3-(pyridin-4-yl)phenyl)thiazol-2-yl)amino)butan-2-yl)-1H-pyrrole-3-carboxamide]", "values": [{"measurement": "growth inhibition in the uveal melanoma cell lines", "setting": "[2]", "result": "potent growth inhibition"}, {"measurement": "onset of growth inhibition versus the clinical PKC and MEK inhibitors", "setting": "[3]", "result": "faster onset of growth inhibition"}, {"measurement": "growth inhibition of uveal melanoma cells versus the clinical PKC and MEK inhibitors", "setting": "[3]; 3 days, 0 to 10 micromolar", "result": "more potent effects on growth inhibition"}, {"measurement": "growth inhibition of parental cell line", "setting": "parental MP41 cells", "result": "strong growth inhibition"}, {"measurement": "sensitivity of PKCi-resistant cells versus the parental MP41 cells", "setting": "[1]; FIG. 7B", "result": "more sensitive"}, {"measurement": "growth inhibition of PKCi-resistant cell line", "setting": "[1]; FIG. 7B, 7-day assay", "result": "strong growth inhibition"}]}
{"smiles": "C[C@@H]1CN(c2cccc(-c3csc(NC(=O)CNC(=O)c4ccn(C(C)(C)C)c4)n3)n2)C[C@H](C)O1", "note": "[Compound C, 1-(tert-butyl)-N-(2-((4-(6-(cis-2,6-dimethylmorpholino)pyridin-2-yl)thiazol-2-yl)amino)-2-oxoethyl)-1H-pyrrole-3-carboxamide]", "values": [{"measurement": "tolerability, body weight", "setting": "[4]", "result": "well tolerated with no body weight loss observed"}]}
{"smiles": "C[C@@H]1CN(c2cccc(-c3ccc4nnc(CNC(=O)c5ccc6c(c5)S(=O)(=O)CCOC6)cc4c3)n2)C[C@H](C)O1", "note": "[Compound 160]", "values": [{"measurement": "IC50", "setting": "BRM; ADP-Glo ATPase assay", "result": 3, "unit": "nM"}, {"measurement": "Ratio* (BRG1 IC50 (μM) divided by BRM IC50 (μM))", "setting": "BRM", "result": 4.54}, {"measurement": "IC50", "setting": "BRG-1; ADP-Glo ATPase assay", "result": 13.6, "unit": "nM"}]}
{"smiles": "COc1ccc2c(c1)N(c1ccc3cnc(CNC(=O)c4ccc5c(c4)S(=O)(=O)CCOC5)cc3n1)CCO2", "note": "[Compound 776]", "values": [{"measurement": "IC50", "setting": "BRM; ADP-Glo ATPase assay", "result": 6.3, "unit": "nM"}, {"measurement": "Ratio*", "setting": "BRM; ratio BRG1 IC50 / BRM IC50", "result": 15.77}, {"measurement": "IC50", "setting": "BRG-1; ADP-Glo ATPase assay", "result": 100, "unit": "nM"}]}
{"smiles": "CS(=O)(=O)c1cc(C(=O)NCc2cc3nc(-c4cccc(N5CC[C@@H]6OCC[C@H]6C5)n4)ccc3cn2)ccc1C(F)F", "note": "[Compound 123]", "values": [{"measurement": "IC50", "setting": "BRM; ADP-Glo ATPase assay", "result": 23.2, "unit": "nM"}, {"measurement": "Ratio* (BRG1 IC50 (μM) divided by BRM IC50 (μM))", "setting": "BRM", "result": 12.51}, {"measurement": "IC50", "setting": "BRG-1; ADP-Glo ATPase assay", "result": 290, "unit": "nM"}]}
{"smiles": "O=C(NCc1cc2nc(-c3ccc4c(n3)C(F)(F)CC4)ccc2cn1)c1ccc2c(c1)S(=O)(=O)CCOC2", "note": "[Compound 678]", "values": [{"measurement": "IC50", "setting": "BRM; [6]", "result": 54.5, "unit": "nM"}, {"measurement": "Ratio*", "setting": "BRM; ratio of BRG1 IC50 to BRM IC50", "result": 10.07}, {"measurement": "IC50", "setting": "BRG-1; [6]", "result": 549, "unit": "nM"}]}
{"smiles": "CSCC[C@H](NC(=O)c1ccc(N)cc1)C(=O)Nc1nc(-c2cccc(-c3ccncc3)c2)cs1", "note": "[Compound A]", "values": [{"measurement": "onset of inhibition versus the clinical PKC and MEK inhibitors", "setting": "[5]", "result": "faster onset of inhibition"}, {"measurement": "growth inhibition of uveal melanoma cells versus the clinical PKC and MEK inhibitors", "setting": "[5]; 3 days, 0 to 10 micromolar", "result": "comparable growth inhibition"}]}
{"smiles": "O=C(NCc1cc2nc(N3CCCc4c(OC5COC5)cccc43)ccc2cn1)c1ccc2c(c1)S(=O)(=O)CCOC2", "note": "[Compound 555]", "values": [{"measurement": "IC50", "setting": "BRM; [6]", "result": 4.6, "unit": "nM"}, {"measurement": "Ratio*", "setting": "BRM; ratio of BRG1 IC50 to BRM IC50", "result": 5.44}, {"measurement": "IC50", "setting": "BRG-1; [6]", "result": 25, "unit": "nM"}]}
{"smiles": "COCc1cc2c(nc1Cl)N(c1ccc3cnc(CNC(=O)c4ccc5c(c4)S(=O)(=O)CCOC5)cc3n1)CCC2", "note": "[Compound 660]", "values": [{"measurement": "IC50", "setting": "BRM; [6]", "result": 7.2, "unit": "nM"}, {"measurement": "Ratio*", "setting": "BRM; ratio of BRG1 IC50 to BRM IC50", "result": 8.17}, {"measurement": "IC50", "setting": "BRG-1; [6]", "result": 59, "unit": "nM"}]}
{"smiles": "CN1CCc2c(-c3ccc4cnc(CNC(=O)c5ccc6c(c5)S(=O)(=O)CCOC6)cc4n3)cccc21", "note": "[Compound 233]", "values": [{"measurement": "IC50", "setting": "BRM; ADP-Glo ATPase assay", "result": 77.1, "unit": "nM"}, {"measurement": "Ratio* (BRG1 IC50 (μM) divided by BRM IC50 (μM))", "setting": "BRM", "result": 14.01}, {"measurement": "IC50", "setting": "BRG-1; ADP-Glo ATPase assay", "result": 1080, "unit": "nM"}]}
{"smiles": "COCCN1CCCc2ccc(-c3ccc4cnc(CNC(=O)c5ccc6c(c5)S(=O)(=O)CCOC6)cc4n3)nc21", "note": "[Compound 109]", "values": [{"measurement": "IC50", "setting": "BRM; ADP-Glo ATPase assay", "result": 16.9, "unit": "nM"}, {"measurement": "Ratio* (BRG1 IC50 (μM) divided by BRM IC50 (μM))", "setting": "BRM", "result": 7.52}, {"measurement": "IC50", "setting": "BRG-1; ADP-Glo ATPase assay", "result": 127, "unit": "nM"}]}
{"smiles": "CS(=O)(=O)c1cc(C(=O)NCc2cc3nc(-c4cccc(N5CC[C@H]6OCC[C@@H]6C5)n4)ccc3cn2)ccc1Cl", "note": "[Compound 98]", "values": [{"measurement": "IC50", "setting": "BRM; ADP-Glo ATPase assay", "result": 33, "unit": "nM"}, {"measurement": "Ratio* (BRG1 IC50 (μM) divided by BRM IC50 (μM))", "setting": "BRM", "result": 7.80}, {"measurement": "IC50", "setting": "BRG-1; ADP-Glo ATPase assay", "result": 257, "unit": "nM"}]}
